Laboratory results published in ChEMBL document CHEMBL3301361, “Experimental in vitro DMPK and physicochemical data on a set of publicly disclosed compounds”.
In brackets after ≈: the same amount, converted by molar mass.

How the values were obtained:
physchem [1] = conditions: octan-1-ol/water
physchem [2] = conditions: pH 7.4 buffer
in vitro [3] = conditions: human
in vitro [4] = conditions: human, plasma

Row | logD (physchem [1]; pH 7.4, LogD7.4) | solubility thermodynamic (physchem [2]) [µM] | microsomal CLint (in vitro [3]; liver microsomes) [µL/min/mg] | Structure (SMILES) | also measured
1 | 2.56 | 91.2 (≈ 42 µg/mL) | 7 | Cc1ccc(C(=O)Nc2nccs2)cc1-n1cnc2ccc(N3CCN(C)CC3)cc2c1=O | 
2 |  |  | 17.8 | O=C(O)CSCC(=O)Nc1nc(-c2ccccc2)cs1 | fraction unbound at 5 h (in vitro [4]; PPB): 0.0097
3 |  |  |  | CCOC(=O)Nc1cc2c(c(N)n1)N=C(c1ccccc1)CCN2 | fraction unbound at 5 h (in vitro [4]; PPB): 0.0544; microsomal CLint (in vitro [3]; microsomes): 66.1 µL/min/mg
4 | 4.41 | 1 (≈ 0.361 µg/mL) |  | CC(C)Cn1c(=O)n(C)c(=O)c2cn(Cc3cccc4ccccc34)cc21 | microsomal CLint (in vitro [3]; microsomes): 14 µL/min/mg
5 | 2.98 | 100 (≈ 61.8 µg/mL) | < 3 | CCN(C(=O)Cc1ccc(S(C)(=O)=O)cc1)C1CCN(CCC(c2ccccc2)c2ccc(NC(=O)C(C)(C)C)cc2)CC1 (configuration not stated) | 
6 | 2.93 | 75.9 (≈ 36.7 µg/mL) | 7 | COc1ccccc1C(=O)Nc1ccc(C)c(-n2cnc3ccc(N4CCN(C)CC4)cc3c2=O)c1 | 
7 |  | 129 (≈ 57.3 µg/mL) | < 3 | CN(C(=O)Cc1ccc(F)cc1)C1CCN(CCC(c2ccccc2)c2ccccc2)CC1 | 
8 | 3.87 | 1 (≈ 0.487 µg/mL) | < 3 | CCCSc1nc(N[C@@H]2C[C@H]2c2ccccc2)c2nnn([C@@H]3C[C@H](OCCO)[C@@H](O)[C@H]3O)c2n1 | 
9 | 3.46 | 1.5 (≈ 0.637 µg/mL) | > 150 | CN(CCOc1ccccc1-c1cc(C(N)=O)c(NC(N)=O)s1)Cc1ccccc1 | 
10 | 3.6 | 0.9 (≈ 0.362 µg/mL) | 15 | COc1cc2ncnc(Nc3ccc(OCc4ccccn4)c(C)c3)c2cc1OC | 
11 |  |  | 12 | Cc1ccc2c(c1)c(Sc1cccc(Cl)c1)c(C)n2CC(=O)O | fraction unbound at 5 h (in vitro [4]; PPB): 0.0036
12 |  | 75.9 (≈ 40.4 µg/mL) | 66 | CCN(C(=O)Cc1ccc(S(C)(=O)=O)cc1)C1CCN(CCC(c2ccccc2)c2ccc(C)cc2)CC1 (configuration not stated) | 
13 |  | 288 (≈ 190 µg/mL) | 18 | CCN(C(=O)Cc1ccc(S(C)(=O)=O)cc1)C1CCN(CC[C@@H](c2ccccc2)N2CCN(S(=O)(=O)C(F)(F)F)CC2)CC1 | 
14 |  |  | < 3 | CCS(=O)(=O)c1ccc(-c2cc(C(F)(F)F)ccc2O[C@@H](C)C(=O)O)c(C)c1 | fraction unbound at 5 h (in vitro [4]; PPB): 0.0418
15 |  |  | 5.5 | CCCCCOc1ccc(C(=O)NC(C(=O)O)C(C)C)cc1 (configuration not stated) | fraction unbound at 5 h (in vitro [4]): 0.0171
16 |  |  | 5 | C[C@H](CO)Nc1nc(SCc2ccco2)nc2nc(N)sc12 | fraction unbound at 5 h (in vitro [4]; PPB): 0.117
17 |  |  | 59 | Nc1ccc2nc(SCC(=O)NC3CCN(Cc4ccc(Cl)c(Cl)c4)CC3)sc2c1 | fraction unbound at 5 h (in vitro [4]; PPB): 0.262
18 |  |  |  | Cc1noc(C)c1-c1ccc(CNS(=O)(=O)c2c(C)noc2C)cc1 | fraction unbound at 5 h (in vitro [4]; PPB): 0.0752; microsomal CLint (in vitro [3]; microsomes): 60.3 µL/min/mg
19 | 1.7 | 95.5 (≈ 39.4 µg/mL) | 5.75 | Cc1ccc2[nH]ccc2c1-c1nc(N2CCOCC2)cc(C2(S(C)(=O)=O)CC2)n1 | 
20 | 2.75 | 933 (≈ 440 µg/mL) |  | Cc1ccc(NC(=O)c2ccccc2F)cc1-n1cnc2ccc(N3CCN(C)CC3)cc2c1=O | microsomal CLint (in vitro [3]; microsomes): 3 µL/min/mg
21 | 0.75 | 316 (≈ 92.4 µg/mL) | 12 | O=C(NO)c1ccc(NS(=O)(=O)c2ccccc2)cc1 | 
22 |  |  | < 3 | COc1cc(NC(C)CCCN)c2ncccc2c1 (configuration not stated) [PRIMAQUINE] | fraction unbound at 5 h (in vitro [4]; PPB): 0.403
23 |  |  |  | CCc1ccc(OCC(=O)O)c(-c2ccc(S(C)(=O)=O)cc2)c1 | fraction unbound at 5 h (in vitro [4]; PPB): 0.0568; microsomal CLint (in vitro [3]; microsomes): < 3 µL/min/mg

Row | logD (physchem [1]; pH 7.4, LogD7.4) | solubility thermodynamic (physchem [2]) [µM] | microsomal CLint (in vitro [3]; liver microsomes) [µL/min/mg] | Structure (SMILES) | also measured
24 | 3.1 | 4.4 (≈ 1.64 µg/mL) | 18 | Cc1ccc(F)c(Nc2ccnc(Nc3ccc(S(N)(=O)=O)cc3)n2)c1 | 
25 |  |  | < 3 | CCCCCCc1nc2c(N)nc3ccccc3c2n1Cc1ccccc1 | fraction unbound at 5 h (in vitro [4]; PPB): 0.0036
26 | 2.74 | 18.6 (≈ 8.11 µg/mL) | 3 | O=c1ncn2nc(Sc3ccc(F)cc3F)ccc2c1-c1c(Cl)cccc1Cl [NEFLAMAPIMOD] | 
27 | 2.5 | 1.9 (≈ 0.508 µg/mL) |  | O=c1[nH]c(-c2ccc([N+](=O)[O-])cc2)nc2ccccc12 | microsomal CLint (in vitro [3]; microsomes): 53.7 µL/min/mg
28 | 2.11 | 537 (≈ 247 µg/mL) |  | Cc1ccc(NC(=O)c2cncs2)cc1-n1cnc2ccc(N3CCN(C)CC3)cc2c1=O | microsomal CLint (in vitro [3]; microsomes): < 3 µL/min/mg
29 |  |  | 10 | Cc1ccc(S(=O)(=O)N(C)C(=O)N2CCC(N3CCC(Oc4ccc(Cl)c(Cl)c4)CC3)CC2)cc1 | fraction unbound at 5 h (in vitro [4]; PPB): 0.0171
30 |  | 0.3 (≈ 0.153 µg/mL) |  | OC[C@H]1C[C@@H](n2nnc3c(N[C@@H]4C[C@H]4c4ccccc4)nc(SCCC(F)(F)F)nc32)[C@H](O)[C@@H]1O | logD (physchem [1]; pH 7.4): 4.06; microsomal CLint (in vitro [3]; microsomes): < 3 µL/min/mg
31 |  |  | < 3 | COc1ccccc1S(=O)(=O)NC(=O)N1CCC(N2CCC(Oc3ccc(Cl)c(Cl)c3)CC2)CC1 | fraction unbound at 5 h (in vitro [4]; PPB): 0.0409
32 | 2.63 | 4.3 (≈ 1.94 µg/mL) | 75 | CC(=O)Nc1ccc(CNc2[nH]nc3cccc(Oc4ccc(S(C)(=O)=O)cc4)c23)cc1 | 
33 | 3.71 | 2.2 (≈ 0.998 µg/mL) | 103 | COc1ccc(OC)c(CNc2[nH]nc3cccc(Oc4ccc(S(C)(=O)=O)cc4)c23)c1 | 
34 |  |  | 34.7 | Cc1cc(Nc2cncc(N[C@@H](C)c3ccc(F)cn3)n2)[nH]n1 | fraction unbound at 5 h (in vitro [4]; PPB): 0.22
35 |  |  | < 3 | CC(=O)Nc1cccc2c1c(S(=O)(=O)c1ccc(Cl)cc1)c(C)n2CC(=O)O | fraction unbound at 5 h (in vitro [4]; PPB): 0.0428
36 |  | 1.3 (≈ 0.364 µg/mL) | 7 | Fc1cnc(Nc2ccccc2)nc1Nc1ccccc1 | 
37 | 3.28 |  | 8 | O=C(NC[C@@H](O)CN1CCC(Oc2ccc(Cl)c(Cl)c2)CC1)c1cnnc2ccccc12 | 
38 |  | 4.6 (≈ 1.83 µg/mL) | 11.2 | CS(=O)(=O)C1(c2cc(N3CCOCC3)nc(-c3cccc4[nH]ccc34)n2)CC1 | 
39 | 3.04 |  |  | Nc1nc(Nc2cccc(Br)c2)c2[nH]cnc2n1 | microsomal CLint (in vitro [3]; microsomes): 16 µL/min/mg
40 | 2.86 | 282 (≈ 150 µg/mL) | < 3 | CCN(C(=O)NCc1ccc(S(C)(=O)=O)cc1)C1CCN(CCC(c2ccccc2)c2ccccc2)CC1 | 
41 | 1.25 | 1260 (≈ 807 µg/mL) |  | CCN(C(=O)Cc1ccc(S(C)(=O)=O)cc1)C1CCN(CC[C@@H](c2cc(F)cc(F)c2)N2CCN(S(C)(=O)=O)CC2)CC1 | microsomal CLint (in vitro [3]; microsomes): 7.5 µL/min/mg
42 | 3.96 |  | > 150 | COc1ccc(C)c(NC(=O)CC23CC4CC(CC(C4)C2)C3)c1 | 
43 |  | 24 (≈ 11.8 µg/mL) | 6 | CCN(C(=O)NCc1c(F)cccc1F)C1CCN(CCC(c2ccccc2)c2ccccc2)CC1 | 
44 | 3.56 |  |  | Cc1c(Sc2ccc(Cl)cc2)c2cc(Cl)ccc2n1C(C)C(=O)O (configuration not stated) | microsomal CLint (in vitro [3]; microsomes): < 3 µL/min/mg
45 | 0.49 |  | 5 | COc1cccc2c(-c3c(C)n(CC(=O)O)c4ccc(C)cc34)ccnc12 | 
46 | 3.36 |  | 9 | C[C@H](CO)Nc1nc(SCc2cccc(F)c2F)nc2[nH]c(=O)ccc12 | 

Row | logD (physchem [1]; pH 7.4, LogD7.4) | solubility thermodynamic (physchem [2]) [µM] | microsomal CLint (in vitro [3]; liver microsomes) [µL/min/mg] | Structure (SMILES) | also measured
47 | 2.09 | 692 (≈ 398 µg/mL) | < 3 | CCN(C(=O)Cc1ccc(S(C)(=O)=O)cc1)C1CCN(CCC(c2ccccc2)c2ccc(NC(C)=O)cc2)CC1 (configuration not stated) | 
48 | 2.75 |  | 15 | Nc1nc(Nc2ccc(F)c(Cl)c2)c2nc[nH]c2n1 | 
49 | 1.89 |  |  | Cc1cccc(Nc2ccccc2C(=O)O)c1C [MEFENAMIC ACID] | microsomal CLint (in vitro [3]; microsomes): 9 µL/min/mg
50 | 1.84 | 174 (≈ 106 µg/mL) | < 3 | CCN(C(=O)Cc1ccc(S(C)(=O)=O)cc1)C1CCN(CCC(c2ccccc2)c2ccc(NS(C)(=O)=O)cc2)CC1 (configuration not stated) | 
51 | 3.02 |  | < 3 | O=C(Nc1ccc(S(=O)(=O)N2CCOCC2)cc1)c1cc(Cl)ccc1NS(=O)(=O)c1ccc(Cl)s1 | 
52 |  | 0.7 (≈ 0.317 µg/mL) | 83 | CSc1nccc(Nc2cc(NC(=O)c3cc(F)cc(N4CCOCC4)c3)ccc2C)n1 | 
53 |  | 38.9 (≈ 16.1 µg/mL) | 5 | CN(C)CC(O)COc1ccc(Nc2ncc(Cl)c(Nc3ccccc3)n2)cc1 (configuration not stated) | 
54 | 3.4 | 324 (≈ 157 µg/mL) | 112 | COc1ccc(CC(=O)N(C)C2CCN(CCC(c3ccccc3)c3ccccc3)CC2)cc1OC | 
55 | 2.1 |  |  | CC(=O)Nc1ccc(O)cc1OC[C@@H](O)CN1CCC2(CC1)Cc1cc(F)ccc1O2 | microsomal CLint (in vitro [3]; microsomes): < 3 µL/min/mg
56 | -0.2 |  | < 3 | O=C(O)CSCC(=O)Nc1nc(-c2ccc(F)cc2)cs1 | 
57 | 3.29 |  | < 3 | CCc1nc2c(N)nc3ccccc3c2n1Cc1ccccc1 | 
58 | 3.47 |  | < 3 | Cc1cc(Oc2ccc3c(c2)OCO3)nc(Oc2ccc(-n3ccnc3)cc2)n1 | 
59 | 0.88 |  |  | Nc1ccc(S(=O)(=O)c2ccc(N)cc2)cc1 [DAPSONE] | microsomal CLint (in vitro [3]; microsomes): < 3 µL/min/mg
60 | 2.43 | 17 (≈ 4.44 µg/mL) | 27 | NC(=O)Nc1cc(-c2ccccc2)sc1C(N)=O | 
61 | 3.29 |  |  | O=C(CC1CCCCC1)Nc1c(Cl)ccc2nc(NCCCO)ccc12 | microsomal CLint (in vitro [3]; microsomes): 25 µL/min/mg
62 | 3.08 | 219 (≈ 106 µg/mL) | 16 | COc1cccc(C(=O)Nc2ccc(C)c(-n3cnc4ccc(N5CCN(C)CC5)cc4c3=O)c2)c1 | 
63 | 1.8 |  | 3 | Nc1nnc(-c2ccccc2)s1 | 
64 | 2.25 |  | 5 | Cc1ccc(C(=O)NC2CCC2)cc1-n1cnc2ccc(N3CCN(C)CC3)cc2c1=O | 
65 | 1.56 |  | < 3 | Cc1ccc(C(=O)NC(C)C)cc1-n1cnc2ccc(N3CCN(C)CC3)cc2c1=O | 
66 | 3.66 |  | < 3 | Cc1c(Cl)ccc(OC2CCN(C[C@H](O)CNC(=O)c3c[nH]nc3C(F)(F)F)CC2)c1Cl | 
67 | -0.89 |  | < 3 | CNC(=O)c1cccc2c1c(Sc1ccc(Cl)cc1)c(C)n2CC(=O)O | 

Row | Structure (SMILES) | logD (physchem [1]; pH 7.4, LogD7.4) | solubility thermodynamic (physchem [2]) [µM] | microsomal CLint (in vitro [3]; liver microsomes) [µL/min/mg] | also measured
68 | C[C@@H]1CN(Cc2ccc(F)cc2)CCN1C(=O)COc1ccc(Cl)cc1NC(N)=O [BX 471 FREE BASE] |  |  | 21 | fraction unbound at 5 h (in vitro [4]): 0.0205
69 | c1ccc2c(c1)[nH]c1cnccc12 [NORHARMANE] |  | 339 (≈ 57 µg/mL) | 89 | 
